Test results taken from BindingDB's records for doi:10.7270/Q2MP51PC (Pcmd, 2008).

Target: T1, Complement C1s subcomponent (Homo sapiens, UniProt P09871)
T1 sequence (P09871 whole entry): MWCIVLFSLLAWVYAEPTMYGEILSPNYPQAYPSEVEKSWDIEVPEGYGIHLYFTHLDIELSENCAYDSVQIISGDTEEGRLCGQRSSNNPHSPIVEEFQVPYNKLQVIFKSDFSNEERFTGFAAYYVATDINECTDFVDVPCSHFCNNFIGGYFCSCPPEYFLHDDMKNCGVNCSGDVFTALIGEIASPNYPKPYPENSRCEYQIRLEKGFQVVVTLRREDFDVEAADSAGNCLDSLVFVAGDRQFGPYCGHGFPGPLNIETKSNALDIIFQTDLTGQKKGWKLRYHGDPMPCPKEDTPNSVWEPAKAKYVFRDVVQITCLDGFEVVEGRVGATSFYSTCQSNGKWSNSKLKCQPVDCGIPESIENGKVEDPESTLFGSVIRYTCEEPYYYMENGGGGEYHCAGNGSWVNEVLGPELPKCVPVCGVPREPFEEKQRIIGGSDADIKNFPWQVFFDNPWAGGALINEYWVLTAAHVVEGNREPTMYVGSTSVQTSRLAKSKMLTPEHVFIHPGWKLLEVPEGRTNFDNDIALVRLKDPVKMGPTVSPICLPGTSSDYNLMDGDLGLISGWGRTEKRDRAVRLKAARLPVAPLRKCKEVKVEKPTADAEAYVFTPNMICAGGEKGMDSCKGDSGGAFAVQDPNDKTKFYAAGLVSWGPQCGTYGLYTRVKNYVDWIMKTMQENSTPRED
Test: concentration-response of complement C1s inhibitors – biochemical, dose response (AID 787)

## CCCCN1C(=O)/C(=C2\SC(N3CCCCC3)=NC2=O)c2ccccc21 [MLS000111979]
  IC50: > 50 µM

## CC1CCCN(C(C(=O)Nc2ccc3c(c2)OCO3)c2ccccc2)C1 (configuration not stated) [MLS000116117]
  IC50: > 50 µM

## CN(CCNC(=O)Cn1c(=O)sc2ccccc21)Cc1ccccc1 [MLS000116175]
  IC50: > 50 µM

## COc1ccc2c(c1)CCc1c(C(=O)NCc3ccc(F)cc3)noc1-2 [MLS000116425]
  IC50: > 50 µM

## Cc1nc(C)c(C(=O)Nc2cccc(C)c2C)o1 [MLS000118537]
  IC50: > 50 µM

## Cn1c(Cn2c(=O)sc3ccccc32)nnc1SCC(=O)NCc1ccccc1Cl [MLS000118585]
  IC50: > 50 µM

## Cc1ccc(CCN2C(=O)CCC2(C)C(=O)NC2CCCC2)cc1 (configuration not stated) [MLS000120119]
  IC50: > 50 µM

## COc1ccccc1S(=O)(=O)Cc1ccc(C(=O)NCCN(C)C)o1 [MLS000120198]
  IC50: > 50 µM

## COc1ccc2cc(CCNC(=O)C(C)C)c(=O)[nH]c2c1 [N-[2-(7-methoxy-2-oxo-1H-quinolin-3-yl)ethyl]-2-methylpropanamide]
  IC50: > 50 µM

## CCCC(=O)Nc1ccc(C(=O)n2nnc3ccccc32)cc1 [N-[4-(1H-1,2,3-benzotriazol-1-ylcarbonyl)phenyl]butanamide]
  IC50: 0.38 µM

## Cc1ccc(-c2noc(CN(C(=O)C34CC5CC(CC(C5)C3)C4)C(C)C)n2)cc1 [N-[[3-(4-methylphenyl)-1,2,4-oxadiazol-5-yl]methyl]-N-propan-2-yl-1-adamantanecarboxamide]
  IC50: > 50 µM

## CCCCn1c(=O)cc(N2CCOCC2)[nH]c1=O [SMR000018178]
  IC50: > 50 µM

## COc1ccc(NC(=O)c2[nH]cnc2C(=O)Nc2ccccc2C)cc1 [SMR000020470]
  IC50: > 50 µM

## CCc1nn(C(C)C(=O)NCCN2CCN(c3cccc(C)c3C)CC2)c(=O)c2cc3occc3n12 (configuration not stated) [SMR000029605]
  IC50: > 50 µM

## COc1ccccc1/N=C/c1nc(-c2ccccc2)oc1OC(C)=O [SMR000039734]
  IC50: > 50 µM

## COc1ccc(NC(=O)CSC2=NC3=C(C(=O)CCC3)C(c3ccco3)C2C#N)c(OC)c1 (configuration not stated) [SMR000042323]
  IC50: > 50 µM

## CCOc1ccc2[nH]c3c(N4CCN(c5ccccn5)CC4)ncnc3c2c1 [SMR000044529]
  IC50: > 50 µM

## Cc1nn(C(=O)c2ccccc2)c2c1C(=O)CC(C)(C)C2 [SMR000069174]
  IC50: 5.35 µM

## CC(=O)c1c(OC(=O)c2ccco2)c2ccccc2n1C [SMR000109417]
  IC50: 25.9 µM

## Cc1cc(OC(=O)c2ccccc2)n(CCC#N)n1 [[2-(2-cyanoethyl)-5-methyl-pyrazol-3-yl] benzoate]
  IC50: 2.14 µM

## CSc1nc(-c2ccco2)nn1C(=O)c1ccc(C)cc1 [[3-(furan-2-yl)-5-methylsulfanyl-1,2,4-triazol-1-yl]-(4-methylphenyl)methanone]
  IC50: 0.9 µM

## CSc1nc(-c2ccco2)nn1C(=O)c1cccs1 [[3-(furan-2-yl)-5-methylsulfanyl-1,2,4-triazol-1-yl]-thiophen-2-ylmethanone]
  IC50: 0.88 µM
